Data taken from PubChem BioAssay AID248 (DTP/NCI, 2004).
Inconclusive results and toxic doses are left out. Rule as the data show it: active = T/C of 150% or more; inactive = T/C below 125%.

System: L1210 leukemia ip in BDF1 mice, survival T/C
Test: NCI In Vivo Anticancer Drug Screen. Data for tumor model L1210 Leukemia (intraperitoneal) in B6D2F1 (BDF1) mice
Conditions: endpoint: mean survival time, higher = longer survival
In short: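 Mice bearing the transplanted tumor received compound or vehicle. Survival of the treated group was divided by that of the vehicle-treated control group to give the ratio.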

[1] = dose: 100.0 mg/kg/injection, schedule: Q04DX003 (ip), vehicle: Klucel (hydroxypropylcellulose) (HPC)
[2] = dose: 200.0 mg/kg/injection, schedule: Q04DX003 (ip), vehicle: Klucel (hydroxypropylcellulose) (HPC)
[3] = dose: 100.0 mg/kg/injection, schedule: Q01DX001 (ip), vehicle: Klucel (hydroxypropylcellulose) (HPC)
[4] = dose: 200.0 mg/kg/injection, schedule: Q01DX001 (ip), vehicle: Klucel (hydroxypropylcellulose) (HPC)
[5] = dose: 400.0 mg/kg/injection, schedule: Q01DX001 (ip), vehicle: Klucel (hydroxypropylcellulose) (HPC)
[6] = dose: 100.0 mg/kg/injection, schedule: Q01DX009 (ip), vehicle: Klucel (hydroxypropylcellulose) (HPC)
[7] = dose: 200.0 mg/kg/injection, schedule: Q01DX009 (ip), vehicle: Klucel (hydroxypropylcellulose) (HPC)
[8] = dose: 400.0 mg/kg/injection, schedule: Q01DX009 (ip), vehicle: Klucel (hydroxypropylcellulose) (HPC)
[9] = dose: 400.0 mg/kg/injection, schedule: Q04DX003 (ip), vehicle: Klucel (hydroxypropylcellulose) (HPC)
[10] = dose: 100.0 mg/kg/injection, schedule: Q01DX001 (ip), vehicle: saline
[11] = dose: 200.0 mg/kg/injection, schedule: Q01DX001 (ip), vehicle: saline
[12] = dose: 400.0 mg/kg/injection, schedule: Q01DX001 (ip), vehicle: saline
[13] = dose: 100.0 mg/kg/injection, schedule: Q04DX002 (ip), vehicle: Klucel (hydroxypropylcellulose) (HPC)

Measured: T/C

O=NN(CCCl)C(=O)N1CCN(C(=O)N(CCCl)N=O)CC1
inactive: dose: 12.5 mg/kg/injection, schedule: Q01DX001 (ip), vehicle: carboxymethylcellulose (CMC) 112 % of control | dose: 25.0 mg/kg/injection, schedule: Q01DX001 (ip), vehicle: carboxymethylcellulose (CMC) 116 % of control | dose: 200.0 mg/kg/injection, schedule: Q01DX001 (ip), vehicle: carboxymethylcellulose (CMC) 95 % of control | dose: 300.0 mg/kg/injection, schedule: Q01DX001 (ip), vehicle: carboxymethylcellulose (CMC) 90 % of control | dose: 400.0 mg/kg/injection, schedule: Q01DX001 (ip), vehicle: carboxymethylcellulose (CMC) 87 % of control

CC(C)C[As](=O)(O)O
inactive: [1] 106 % of control | [2] 95 % of control

CC(=O)n1[nH]c(=O)c2ccccc2c1=O
inactive: [3] 103 % of control | [4] 105 % of control | [5] 103 % of control

Cc1c2cnccc2c(C)c2c1c1ccccc1n2CCCl
inactive: dose: 31.25 mg/kg/injection, schedule: Q01DX009 (ip), vehicle: saline with Tween-80 106 % of control | dose: 37.5 mg/kg/injection, schedule: Q04DX003 (ip), vehicle: saline 93 % of control | dose: 62.5 mg/kg/injection, schedule: Q01DX009 (ip), vehicle: saline with Tween-80 109 % of control | dose: 75.0 mg/kg/injection, schedule: Q04DX003 (ip), vehicle: saline 97 % of control | dose: 150.0 mg/kg/injection, schedule: Q04DX003 (ip), vehicle: saline 98 % of control | dose: 300.0 mg/kg/injection, schedule: Q04DX003 (ip), vehicle: saline 100 % of control

O=C1CCCC(=O)N1.[Tl]
inactive: dose: 3.12 mg/kg/injection, schedule: Q04DX003 (ip), vehicle: water 108 % of control | dose: 6.25 mg/kg/injection, schedule: Q04DX003 (ip), vehicle: water 102 % of control | dose: 12.5 mg/kg/injection, schedule: Q04DX003 (ip), vehicle: water 96 % of control

C=C(Cl)C(=O)OCC
inactive: dose: 5.0 mg/kg/injection, schedule: Q01DX009 (ip), vehicle: saline 103 % of control | dose: 5.0 mg/kg/injection, schedule: Q04DX003 (ip), vehicle: saline with Tween-80 93 % of control | dose: 10.0 mg/kg/injection, schedule: Q01DX009 (ip), vehicle: saline 98 % of control | dose: 10.0 mg/kg/injection, schedule: Q04DX003 (ip), vehicle: saline with Tween-80 95 % of control | dose: 20.0 mg/kg/injection, schedule: Q01DX009 (ip), vehicle: saline 104 % of control | dose: 20.0 mg/kg/injection, schedule: Q04DX003 (ip), vehicle: saline with Tween-80 95 % of control

CCOC(=O)C(C#N)C(C)CC (stereo not drawn)
inactive: [6] 102 % of control | [1] 98 % of control | [7] 98 % of control | [2] 102 % of control | [8] 94 % of control | [9] 90 % of control

O=C1OC(CO)C(O)C1O (stereo not drawn)
inactive: [10] 101 % of control | [11] 95 % of control | [12] 91 % of control

O=C(c1ccccc1)c1ccc2c3c(cccc13)C(=O)c1ccccc1-2
inactive: dose: 100.0 mg/kg/injection, schedule: Q01DX001 (ip), vehicle: saline with Tween-80 92 % of control | dose: 200.0 mg/kg/injection, schedule: Q01DX001 (ip), vehicle: saline with Tween-80 92 % of control | dose: 400.0 mg/kg/injection, schedule: Q01DX001 (ip), vehicle: saline with Tween-80 88 % of control

Cc1ccc(C2OCC(CCl)O2)cc1 (stereo not drawn)
inactive: dose: 222.0 mg/kg/injection, schedule: Q01DX Z (ip), vehicle: methylcellulose (MC) 108 % of control | dose: 333.0 mg/kg/injection, schedule: Q01DX Z (ip), vehicle: methylcellulose (MC) 96 % of control | dose: 500.0 mg/kg/injection, schedule: Q01DX Z (ip), vehicle: methylcellulose (MC) 102 % of control

O=C(OC1CCC2CC21)c1ccc([N+](=O)[O-])cc1[N+](=O)[O-] (stereo not drawn)
inactive: [3] 98 % of control | [4] 95 % of control | [5] 106 % of control

CCC(C(=O)c1ccccc1)C(O)(C(F)(F)F)C(F)(F)F (stereo not drawn)
inactive: [3] 96 % of control | [1] 94 % of control | [4] 106 % of control | [2] 104 % of control | [5] 95 % of control | [9] 104 % of control

[CH3][Sn]([CH3])([CH3])[c]1ccc(-c2ccccc2)cc1
inactive: dose: 25.0 mg/kg/injection, schedule: Q04DX002 (ip), vehicle: Klucel (hydroxypropylcellulose) (HPC) 92 % of control | dose: 50.0 mg/kg/injection, schedule: Q04DX002 (ip), vehicle: Klucel (hydroxypropylcellulose) (HPC) 95 % of control | [13] 100 % of control

COc1ccc([N+](=O)[O-])cc1NC(=O)Cc1ccccc1
inactive: dose: 100.0 mg/kg/injection, schedule: Q01DX009 (ip), vehicle: saline with Tween-80 107 % of control | dose: 200.0 mg/kg/injection, schedule: Q01DX009 (ip), vehicle: saline with Tween-80 101 % of control | dose: 400.0 mg/kg/injection, schedule: Q01DX009 (ip), vehicle: saline with Tween-80 91 % of control

Fc1c(F)c(-c2c(F)c(F)c(S)c(F)c2F)c(F)c(F)c1S
inactive: dose: 100.0 mg/kg/injection, schedule: Q04DX002 (ip), vehicle: saline with Tween-80 88 % of control | dose: 200.0 mg/kg/injection, schedule: Q04DX002 (ip), vehicle: saline with Tween-80 98 % of control

CCCCCCCCCCCCCCCCCCC[As](=O)(O)CCCCCCCCCCCCCCCCCCC
inactive: dose: 50.0 mg/kg/injection, schedule: Q01DX001 (ip), vehicle: saline 97 % of control | [10] 89 % of control | [11] 95 % of control | [12] 91 % of control

O=C(OCCCl)c1ccccc1
inactive: dose: 60.0 mg/kg/injection, schedule: Q01DX009 (ip), vehicle: Klucel (hydroxypropylcellulose) (HPC) 103 % of control | [3] 106 % of control | [1] 101 % of control | dose: 120.0 mg/kg/injection, schedule: Q01DX009 (ip), vehicle: Klucel (hydroxypropylcellulose) (HPC) 100 % of control | [4] 98 % of control | [2] 101 % of control | dose: 240.0 mg/kg/injection, schedule: Q01DX009 (ip), vehicle: Klucel (hydroxypropylcellulose) (HPC) 94 % of control | [5] 98 % of control | [9] 101 % of control

CN(C)CCCN(C)CCCCN(C)CCCN(C)C
inactive: [10] 96 % of control

CC(=O)OC1C(=O)C(C)(C)CN(C(C)(C)C)CC1(C)C (stereo not drawn)
inactive: dose: 100.0 mg/kg/injection, schedule: Q01DX001 (ip), vehicle: saline sonified 102 % of control | dose: 200.0 mg/kg/injection, schedule: Q01DX001 (ip), vehicle: saline sonified 91 % of control | dose: 400.0 mg/kg/injection, schedule: Q01DX001 (ip), vehicle: saline sonified 90 % of control

CCn1c(C)cc(=O)n1-c1ccc([N+](=O)[O-])cc1
inactive: [1] 96 % of control | [2] 104 % of control | [9] 98 % of control

O=C(Oc1cc(Cl)c(S(=O)(=O)F)cc1Cl)c1ccc([N+](=O)[O-])cc1
inactive: [13] 99 % of control | dose: 200.0 mg/kg/injection, schedule: Q04DX002 (ip), vehicle: Klucel (hydroxypropylcellulose) (HPC) 99 % of control | dose: 400.0 mg/kg/injection, schedule: Q04DX002 (ip), vehicle: Klucel (hydroxypropylcellulose) (HPC) 92 % of control

CNC(=O)Nc1c(C)cccc1Cl
inactive: [6] 94 % of control | [7] 95 % of control | [8] 105 % of control
